US7794929B2, “Genomic screen for epigenetically silenced genes associated with cancer” (The Johns Hopkins University School of Medicine, priority 2002, dated 2010)

Tests used:
RKO cells = experiment: Subtraction microarray and semi-quantitative RT-PCR of gene expression after DAC and/or TSA treatment; type: cell-based, human; settings: for expression of Group 2 genes (n=23) / expression of Group 1 genes (n=51): RKO cells, semi-quantitative RT-PCR; for expression of Group 2 genes (n=23): DAC alone or TSA alone; for expression of Group 1 genes (n=51): low dose DAC alone, TSA alone or combined
Procedure: RKO cells were treated with 5-aza-2′-deoxycytidine (DAC; Sigma) and/or trichostatin A (TSA; Wako) as described (Cameron et al., supra, 1999). Briefly, the treatment consisted of DAC (200 nM) for 48 hr, with drug and medium replaced at the 24 hr time point after beginning of treatment, followed by addition of TSA to a final concentration of 300 nM (from a 1.5 mM ethanol dissolved stock) and incubation for an additional 24 hr. Cells also were treated with DAC alone or TSA alone, or mock treated, using the same volumes of PBS and/or ethanol, and/or same amount of the drugs. Some colorectal cancer (CRC) cell lines also were treated for RT-PCR analysis to assess more robust levels of gene expression; treatment was with 5 μM DAC for 72 hr, with drug and medium being replaced every 24 hr. Total RNA was extracted using the TRIZOL Reagent (Gibco/BRL), and used for microarray analysis, cDNA subtraction and RT-PCR. Prior to cDNA subtraction, poly A RNA was isolated from total RNA using the MESSAGE MAKER Reagent Assembly kit (Gibco/BRL). cDNA subtraction was performed with the combination treated RKO cell line as the tester, and mock treated cells as the driver by using the PCR-Select™ cDNA subtraction kit (Clontech). Synthesized cDNA was digested with Rsa I, and tester cDNA was ligated to adaptors included in the kit. After hybridization, PCR amplification of the subtracted cDNA was performed using the ADVANTAGE cDNA PCR kit (Clontech). Microarray analysis was performed using the Mammalian GeneFilters Microarrays™ system (Research Genetics). Filters were generated for approximately 5,000 of the genes analyzed in the Johns Hopkins Comprehensive microarray core, and filters for an additional 5,000 genes were purchased (Human GeneFilters Microarrays™ Release II; Research Genetics). A total of 10,814 genes and ESTs were analyzed. Hybridization of the filters was performed according to manufacturer's recommendation. Briefly, 5 μg of total RNA was reverse transcribed and labeled using oligo (dT)12-18 primer and ^32dCTP with SUPERSCRIPT II reverse transcriptase (Gibco/BRL). Hybridization of the filters was allowed to proceed for 12 to 18 hr. Data was analyzed using the PSCAN program (National Institutes of Health). For subtraction-microarray analysis, the 2nd PCR product from cDNA subtraction was labeled with ^33P using the MULTIPRIME DNA labeling system (Amersham). Hybridization and data analysis were performed as described above. Microarray analysis was repeated independently at least three times for each condition, and results for probing the arrays with cDNA for total RNA from mock treated cells were compared to those for hybridizations with subtraction PCR products. DNase I (Ambion) treated total RNA (2 μg) was reverse transcribed for single stranded cDNA using oligo (dT)12-18 primer with SUPERSCRIPT II reverse transcriptase (Gibco/BRL). PCR reactions were performed in a volume of 50 μl containing 1×PCR buffer (Gibco/BRL), 1.5 mM of MgCl2, 0.3 mM of dNTP, 0.25 μM of each primer and 2 U of Taq polymerase (Gibco/BRL). One hundred ng of cDNA was used for PCR amplification, and all of the genes were amplified with multiple cycle numbers (20 to 35 cycles) to determine appropriate conditions to obtain semi-quantitative differences in their expression levels. GAPDH PCR (25 and 28 cycles) was performed to ensure cDNA quality and loading accuracy. Amplification primer pairs were as shown in Table 4 (SEQ ID NOS: 149 to 296.

CRC cell lines = experiment: RT-PCR expression analysis of methylation silenced genes in CRC cell lines after DAC treatment; type: cell-based, human
Procedure: Briefly, the treatment consisted of DAC (200 nM) for 48 hr, with drug and medium replaced at the 24 hr time point after beginning of treatment, followed by addition of TSA to a final concentration of 300 nM (from a 1.5 mM ethanol dissolved stock) and incubation for an additional 24 hr. Cells also were treated with DAC alone or TSA alone, or mock treated, using the same volumes of PBS and/or ethanol, and/or same amount of the drugs. Some colorectal cancer (CRC) cell lines also were treated for RT-PCR analysis to assess more robust levels of gene expression; treatment was with 5 μM DAC for 72 hr, with drug and medium being replaced every 24 hr. Total RNA was extracted using the TRIZOL Reagent (Gibco/BRL), and used for microarray analysis, cDNA subtraction and RT-PCR. DNase I (Ambion) treated total RNA (2 μg) was reverse transcribed for single stranded cDNA using oligo (dT)12-18 primer with [sequence] II reverse transcriptase (Gibco/BRL). PCR reactions were performed in a volume of 50 μl containing 1×PCR buffer (Gibco/BRL), 1.5 mM of MgCl2, 0.3 mM of dNTP, 0.25 μM of each primer and 2 U of Taq polymerase (Gibco/BRL). One hundred ng of cDNA was used for PCR amplification, and all of the genes were amplified with multiple cycle numbers (20 to 35 cycles) to determine appropriate conditions to obtain semi-quantitative differences in their expression levels. GAPDH PCR (25 and 28 cycles) was performed to ensure cDNA quality and loading accuracy. […] For RT-PCR, SFRP2 sense and antisense primers were designed for exons 2 and 3, respectively; SFRP4 sense and antisense primers were designed for exons 2 and 5, respectively; and SFRP5 sense and antisense primers were designed for exons 2 and 3, respectively.

[1] = colorectal cancer cells and/or gastric cancer cells

Row | Compound | expression of Group 2 genes (n=23) (RKO cells) | expression of Group 1 genes (n=51) (RKO cells) | basal level of expression of HOXA1, GRO3 and DLX7 (RKO cells; [1]) | expression of POR1, MBNL, TRADD, PDIP, RAD23B, RPL13, GNAI2, PPP1R21A, FPGT and TRIM32 (RKO cells; [1]) | expression of PTGS2, CDKN2A, TIMP3, S100A10, SFRP1, CXX1, SEZZ6L, KIAA0786, TIMP2, PCDH8, FOLH1 and SNRPN (no detectable basal expression) (RKO cells; [1]) | expression of FOLH1 and PCDH8 (silent genes) (CRC cell lines; CRC cell lines) | basal expression of the hypermethylated SFRP genes (the three other than SFRP1) (CRC cell lines; CRC cell lines, DAC treatment) | KIAA0786 expression (not basally expressed despite a lack of methylation) (CRC cell lines; SW480 cells) | expression of Group 1a genes lacking basal expression in the methylated cell lines (CRC cell lines; series of 8 CRC cell lines, incubation with DAC)
1 | Nc1ncn([C@H]2C[C@H](O)[C@@H](CO)O2)c(=O)n1 [DAC, 5-aza-2′-deoxycytidine] | variable initial expression or response | minimal increase in expression | increased | vary among genes | re-expressed | re-expression | restored | reactivated | restored
2 | CC(/C=C/C(=O)NO)=C\[C@@H](C)C(=O)c1ccc(N(C)C)cc1 [TSA, trichostatin A] | up-regulation | no change in expression | not | up-regulated | – | – | – | – | –
